# Assay results reported in ChEMBL document CHEMBL5728503, “Second generation GRP94-selective inhibitors” (2021).
# Target: Endoplasmin (Canis lupus familiaris, UniProt P41148)
# Test: Fluorescence Polarization Assay: The assay was performed in 96-well black, flat-bottom plates with a final volume of 100 μL. 25 μL of assay buffer (20 mM HEPES, pH 7.3, 50 mM KCl, 5 mM MgCl2, 20 mM Na2MoO4, 2 mM DTT, 0.1 mg/mL BGG, and 0.01% NP-40) were added, followed by 25 μL of assay buffer containing 6 nM FITC-GDA (fluorescent tracer, stock in DMSO, diluted in assay buffer) and 50 μL of assay buffer containing 10 nM of either Grp94 or Hsp90α were added to each well. For each plate, wells containing buffer only (background), tracer in buffer only (low polarization control) and protein, tracer, and 1% DMSO (final concentration, high polarization control) were included. Compounds were then added with a final concentration of DMSO=1%. Plates were incubated at 4° C. with rocking for 24 h. […] Polarization values were correlated to % tracer bound and compound concentrations.
# Endoplasmin, sequence (P41148 whole entry): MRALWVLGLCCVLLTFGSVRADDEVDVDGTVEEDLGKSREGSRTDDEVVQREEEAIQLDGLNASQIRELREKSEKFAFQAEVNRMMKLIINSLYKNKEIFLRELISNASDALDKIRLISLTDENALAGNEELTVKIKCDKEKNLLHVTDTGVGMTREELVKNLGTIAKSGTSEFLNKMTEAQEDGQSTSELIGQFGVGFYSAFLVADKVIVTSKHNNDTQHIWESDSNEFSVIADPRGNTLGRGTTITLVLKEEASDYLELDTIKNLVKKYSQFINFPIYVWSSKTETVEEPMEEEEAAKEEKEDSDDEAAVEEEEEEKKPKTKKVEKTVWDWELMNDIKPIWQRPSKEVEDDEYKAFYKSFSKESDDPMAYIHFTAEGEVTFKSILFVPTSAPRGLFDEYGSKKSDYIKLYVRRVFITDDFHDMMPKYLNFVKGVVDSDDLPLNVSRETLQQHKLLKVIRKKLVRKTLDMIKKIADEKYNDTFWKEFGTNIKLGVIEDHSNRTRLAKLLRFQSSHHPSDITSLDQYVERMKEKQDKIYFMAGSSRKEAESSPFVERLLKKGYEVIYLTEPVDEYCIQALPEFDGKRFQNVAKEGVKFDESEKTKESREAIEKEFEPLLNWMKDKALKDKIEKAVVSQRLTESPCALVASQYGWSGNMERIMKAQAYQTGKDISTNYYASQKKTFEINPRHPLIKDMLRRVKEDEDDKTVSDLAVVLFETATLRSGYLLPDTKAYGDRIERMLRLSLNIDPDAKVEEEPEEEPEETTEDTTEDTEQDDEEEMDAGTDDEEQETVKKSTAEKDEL
row,SMILES,Kd [nM]
1,COC(=O)c1c(O)cc(O)c(Cl)c1CCc1ccccc1Cc1ccccc1Cl,5500
2,COC(=O)c1c(O)cc(O)c(Cl)c1CCc1cccc(Cc2ccccc2)c1,10400
3,COC(=O)c1c(O)cc(O)c(Cl)c1CCc1cccc(OC)c1Cc1ccccc1,730
4,COC(=O)c1c(O)cc(O)c(Cl)c1CCc1cc(N)ccc1Cc1ccccc1,280
5,COC(=O)c1c(O)cc(O)c(Cl)c1CCc1ccc(O)cc1Cc1ccccc1,330
6,COC(=O)c1c(O)cc(O)c(Cl)c1CCc1ccccc1Cc1cccc(Cl)c1,11900
7,CCOc1ccccc1Cc1ccccc1CCc1c(Cl)c(O)cc(O)c1C(=O)OC,6100

# Further compounds by falling Kd, results first:
row,Kd [nM],SMILES
1,7800,COC(=O)c1c(O)cc(O)c(Cl)c1CCc1ccccc1Cc1ccccc1OC
2,4200,COC(=O)c1c(O)cc(O)c(Cl)c1CCc1ccccc1Cc1ccc(Cl)cc1
3,680,COC(=O)c1c(O)cc(O)c(Cl)c1CCc1ccc(OC)cc1Cc1ccccc1
4,540,COC(=O)c1c(O)cc(O)c(Cl)c1CCc1cccc(O)c1Cc1ccccc1
5,450,COC(=O)c1c(O)cc(O)c(Cl)c1CCc1cc(OC)ccc1Cc1ccccc1
6,240,COC(=O)c1c(O)cc(O)c(Cl)c1CCc1ccc(N)cc1Cc1ccccc1
